Assay results: ChEMBL document CHEMBL4622929 (Bioorg Med Chem Lett, 2020)

How the values were obtained:
[1] = target: Adenosine receptor A2a (Rattus norvegicus) (UniProt P30543); assay: Displacement of [3H]NECA from Sprague-Dawley rat striatal membrane A2A adenosine receptor at 100 uM by scintillation counting analysis relative to control; type: cell membranes; details: Striatum
[2] = target: T1, Adenosine receptor A1 (Rattus norvegicus, UniProt P25099); assay: Displacement of [3H]DPCPX from Sprague-Dawley rat whole brain membrane A1AR by scintillation counting analysis; type: cell membranes
T1 sequence (P25099 whole entry): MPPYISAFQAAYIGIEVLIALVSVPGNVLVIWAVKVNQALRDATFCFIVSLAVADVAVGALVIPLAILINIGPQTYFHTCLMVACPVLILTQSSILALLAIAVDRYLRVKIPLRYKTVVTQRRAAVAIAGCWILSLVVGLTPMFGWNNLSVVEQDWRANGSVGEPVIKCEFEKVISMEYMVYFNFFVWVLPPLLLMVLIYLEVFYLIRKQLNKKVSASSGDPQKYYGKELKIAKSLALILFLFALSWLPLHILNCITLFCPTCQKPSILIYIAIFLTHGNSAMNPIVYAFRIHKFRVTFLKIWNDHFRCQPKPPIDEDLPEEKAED

[3] = target: Adenosine receptor A2a (Rattus norvegicus, UniProt P30543); assay: Displacement of [3H]NECA from Sprague-Dawley rat striatal membrane A2A adenosine receptor by scintillation counting analysis; type: cell membranes, Striatum
[4] = target: T2, Adenosine receptor A1 (Rattus norvegicus) (UniProt P25099); assay: Displacement of [3H]DPCPX from Sprague-Dawley rat whole brain membrane A1AR at 100 uM by scintillation counting analysis relative to control; type: cell membranes
T2 sequence (whole entry): T1 sequence (P25099 whole entry)

[5] = target: T1, Adenosine receptor A1; assay: Displacement of [3H]DPCPX from Sprague-Dawley rat whole brain membrane A1AR in presence of GTP by radioligand binding assay; type: cell membranes
[6] = target: T2, Adenosine receptor A1 (Rattus norvegicus); assay: Ratio of Ki for displacement of [3H]DPCPX from Sprague-Dawley rat whole brain membrane A1AR in presence of GTP to Ki for displacement of [3H]DPCPX from Sprague-Dawley rat whole brain A1AR; type: cell membranes
[7] = species: Rattus norvegicus; assay: Selectivity index, ratio of Ki for Sprague-Dawley rat striatal membrane A2 adenosine receptor to Ki for Sprague-Dawley rat whole brain A1 adenosine receptor

Sequence of Adenosine receptor A2a (Rattus norvegicus) (P30543 whole entry): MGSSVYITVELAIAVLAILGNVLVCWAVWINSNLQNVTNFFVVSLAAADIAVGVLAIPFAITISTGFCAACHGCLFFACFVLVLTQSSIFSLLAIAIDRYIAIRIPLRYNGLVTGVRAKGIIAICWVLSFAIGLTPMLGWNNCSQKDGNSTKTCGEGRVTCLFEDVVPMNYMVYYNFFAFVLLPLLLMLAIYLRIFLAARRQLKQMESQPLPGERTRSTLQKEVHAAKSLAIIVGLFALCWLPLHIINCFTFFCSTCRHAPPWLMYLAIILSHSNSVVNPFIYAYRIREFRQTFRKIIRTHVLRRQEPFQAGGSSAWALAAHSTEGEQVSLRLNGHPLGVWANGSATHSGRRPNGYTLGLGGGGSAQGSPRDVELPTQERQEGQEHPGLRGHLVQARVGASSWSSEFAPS
Sequence of Adenosine receptor A2a (P30543 whole entry): as above

inhibition [1] [%] | Ki [2] [µM] | Ki [3] [µM] | inhibition [4] [%] | Ki [5] [µM] | Ratio Ki [6] | Ratio Ki [7] | Structure (SMILES)
56 | > 100 | > 100 | 100 | – | – | – | O=c1[nH]c(/C=C/c2ccccc2)nc2ccccc12
66 | > 100 | > 100 | 42 | – | – | – | O=c1oc(-c2ccco2)nc2ccccc12
62 | > 100 | > 100 | 50 | – | – | – | Oc1nc(-c2ccc(F)cc2)nc2ccccc12
69 | 5.06 | > 100 | – | 5.72 | 1.12 | – | O=C1OC(c2ccccc2)Nc2ccccc21 (centres undefined)
77 | > 100 | > 100 | 99 | – | – | – | CCOc1ccc(-c2nc3ccccc3c(=O)o2)cc1
79 | – | – | 44 | – | – | – | COc1ccc(-c2nc(O)c3ccccc3n2)cc1
– | 4.62 | 8.11 | – | 5.89 | 1.23 | 1.76 | O=c1[nH]c(-c2ccco2)nc2ccccc12
77 | > 100 | > 100 | 84 | – | – | – | Cc1ccc(-c2nc3ccccc3c(=O)o2)cc1
77 | > 100 | > 100 | 51 | – | – | – | O=c1oc2ccccc2cc1-c1ccccc1
– | – | 0.557 | – | – | – | – | OC[C@H]1O[C@@H](n2cnc3c(NC4CCCC4)ncnc32)[C@H](O)[C@@H]1O [N6-CYCLOPENTYLADENOSINE]
81 | > 100 | > 100 | 86 | – | – | – | O=c1oc(-c2ccc(Cl)cc2)nc2ccccc12
91 | 17.3 | > 100 | – | – | – | – | O=c1oc2ccccc2nc1-c1ccccc1
82 | > 100 | > 100 | 54 | – | – | – | O=c1[nH]c(-c2ccc(Cl)cc2)nc2ccccc12
84 | > 100 | > 100 | 98 | – | – | – | O=c1[nH]c(-c2ccc(Br)cc2)nc2ccccc12
85 | > 100 | > 100 | 56 | – | – | – | O=c1oc(/C=C/c2ccccc2)nc2ccccc12
59 | 32.4 | > 100 | – | – | – | – | O=c1oc(-c2cccs2)nc2ccccc12
30 | > 100 | > 100 | 39 | – | – | – | Oc1nc(-c2cccs2)nc2ccccc12
92 | > 100 | > 100 | 95 | – | – | – | O=c1oc(-c2ccc(Br)cc2)nc2ccccc12
100 | – | – | 100 | – | – | – | Oc1nc(-c2ccccc2)cc2ccccc12
– | > 100 | 2.81 | 67 | – | – | – | COc1ccc(-c2nc(O)c3ccccc3n2)cc1OC
55 | 2.5 | > 100 | – | 2.95 | 1.18 | – | Cc1ccc(-c2nc3ccccc3c(=O)[nH]2)cc1
– | > 100 | > 100 | – | – | – | – | O=c1[nH]c(-c2ccccc2)cc2ccccc12
49 | 6.38 | > 100 | – | 6.92 | 1.09 | – | O=c1oc(-c2ccccc2)nc2ccccc12

Structure (SMILES) | inhibition [1] [%] | Ki [2] [µM] | Ki [3] [µM] | inhibition [4] [%] | Ki [5] [µM] | Ratio Ki [6] | Ratio Ki [7]
COc1ccc(-c2nc3ccccc3c(=O)[nH]2)cc1 | – | > 100 | > 100 | – | – | – | –
O=c1oc(-c2ccc(F)cc2)nc2ccccc12 | 70 | > 100 | > 100 | 100 | – | – | –
COc1ccc(-c2nc3ccccc3c(=O)o2)cc1 | 37 | > 100 | > 100 | 54 | – | – | –
